How the values were obtained:
[1] = system: His-induced bronchoconstriction; assay: Bronchoprotection in guinea pig model of histamine-induced bronchoconstriction; type: in vivo; settings: inhalation
Experimental: (§1) Duration of Bronchoprotection in Guinea Pig Models of Acetylcholine-Induced or Histamine-Induced Bronchoconstriction
(§2) To isolate muscarinic antagonist activity in the acetylcholine-induced bronchoconstriction model, the animals were administered propanolol, a compound that blocks β receptor activity, prior to the administration of acetylcholine. Duration of bronchoprotection in the histamine-induced bronchoconstriction model reflects β2 adrenergic receptor agonist activity.
(§3) Groups of 6 male guinea pigs (Duncan-Hartley (HsdPoc:DH) Harlan, Madison, Wis.) weighing between 250 and 350 g were individually identified by cage cards. Throughout the study, animals were allowed access to food and water ad libitum.
(§4) Test compounds were administered via inhalation over 10 minutes in a whole-body exposure dosing chamber (R&S Molds, San Carlos, Calif.). […] This value was measured gravimetrically by comparing pre- and post-nebulization weights of the filled nebulizer.
(§5) The bronchoprotective effects of test compounds administered via inhalation were evaluated using whole body plethysmography at 1.5, 24, 48 and 72 hours post-dose. […]
(§6) Once it was determined that baseline values were within the range of 0.3-0.9 mL/cm H2O for compliance and within the range of 0.1-0.199 cm H2O/mL per second for resistance, the pulmonary evaluation was initiated. […]

[2] = system: acetylcholine-induced or histamine-induced bronchoconstriction; assay: Duration of bronchoprotection in guinea pig models of acetylcholine-induced or histamine-induced bronchoconstriction (model not specified for the result); type: in vivo; settings: inhalation
Experimental: as §1, §2, §3, §4, §5, §6

[3] = biological target: β2 adrenergic receptor (Homo sapiens, UniProt P07550); assay: Whole-cell cAMP Flashplate assay with lung epithelial cell line (BEAS-2B) endogenously expressing human β2 adrenergic receptor; type: cell-based; design: a cell line expressing endogenous levels of the β2 adrenergic receptor, a human lung epithelial cell line (BEAS-2B) was used; host or cells: BEAS-2B human lung epithelial cells; settings: BEAS-2B human lung epithelial cell line, endogenous receptor
β2 adrenergic receptor, sequence (P07550 whole entry): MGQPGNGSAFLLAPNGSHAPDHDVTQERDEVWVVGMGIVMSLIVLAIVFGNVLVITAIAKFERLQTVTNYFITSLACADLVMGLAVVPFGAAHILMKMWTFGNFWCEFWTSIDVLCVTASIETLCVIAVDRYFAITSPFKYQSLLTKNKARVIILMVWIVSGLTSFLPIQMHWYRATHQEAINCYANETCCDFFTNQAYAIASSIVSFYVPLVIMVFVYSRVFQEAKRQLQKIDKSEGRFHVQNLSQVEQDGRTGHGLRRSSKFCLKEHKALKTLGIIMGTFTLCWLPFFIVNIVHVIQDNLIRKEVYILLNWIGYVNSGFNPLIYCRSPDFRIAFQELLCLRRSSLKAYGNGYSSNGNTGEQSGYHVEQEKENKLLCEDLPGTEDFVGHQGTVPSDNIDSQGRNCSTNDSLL
Experimental: On the day of the assay, cells were rinsed with PBS, lifted by scraping with 5 mM EDTA in PBS, and counted. Cells were pelleted by centrifugation at 1,000 rpm and re-suspended in stimulation buffer pre-warmed to 37° C. at a final concentration of 600,000 cells/mL. Cells were used at a final concentration of 100,000 to 120,000 cells/well in this assay. […] Test compounds were tested in the assay at 11 different concentrations, ranging from 10 μM to 10 pM. Reactions were incubated for 10 min at 37° C. and stopped by addition of 100 μL of ice-cold detection buffer. Plates were sealed, incubated over night at 4° C. and counted the next morning in a Topcount scintillation counter (Packard BioScience Co., Meriden, Conn.). […] Data were analyzed by nonlinear regression analysis with the GraphPad Prism Software package (GraphPad Software, Inc., San Diego, Calif.) using the 4-parameter model for sigmoidal dose-response.

## COc1cc(NC(=O)CCN2CCC(OC(=O)Nc3ccccc3-c3ccccc3)CC2)c(Cl)cc1CNC[C@H](O)c1ccc(O)c2[nH]c(=O)ccc12 [compound of formula I, biphenyl-2-ylcarbamic acid 1-[2-(2-chloro-4-{[(R)-2-hydroxy-2-(8-hydroxy-2-oxo-1,2-dihydroquinolin-5-yl)ethylamino]methyl}-5-methoxyphenylcarbamoyl)ethyl]piperidin-4-yl ester]
[1]
  bronchoprotective effect against His-induced bronchoconstriction: dose-dependent bronchoprotective effect
[2]
  duration (PD T1/2) of brochoprotective activity: at least 24 hours
[3]
  EC50: < 10 nM
